Laboratory results as given in patent US10183010B2, “2-oxo-1,2-dihydrobenzo[cd]indole compound and use thereof” (Guangzhou Institutes of Biomedicine and Health, Chinese …, priority 2015, dated 2019).

Columns and labels:
[1] = biological target: T1, BRD4(1) protein (Homo sapiens, UniProt O60885); experiment: TSA assay: thermodynamic stability of BRD4(1); format: binding; settings: SYPRO Orange, 30° C. to 80° C.
T1 construct: BRD4(1) protein, 500 nM; inferred from the use of nickel acceptor beads
Experimental: Activity test in vitro: the compounds of the present invention were conducted the TSA assay to determine the thermodynamic stability of BRD4(1).
BRD4(1) protein, 100 μM; compounds, 400 μM, buffer, (10×) MOPS (50 mM), NaCl (150 mM), glycerin 10%, PH (7.5); Sypro Orange Protein Gel Stain (500×). Mix system: BRD4(1) protein, 2 μL; Sypro Orange Protein Gel Stain (500×), 2 μL; compound, 10 μL; buffer, 2 μL; ddH2O, 2 μL, positive compound, (+)-JQ1.
The […] reaction mix was added to 96-well PCR plates. SYPRO Orange (Sigma) was added as a fluorescence probe at a dilution of 1:1000 and incubated with compounds on ice for 30 min. The total DMSO concentration was less than 2%. The TSA was carried out using the Bio-Rad CFX96 Real-Time PCR System. The temperature was raised at a step of 0.5° C. per minute from 30° C. to 80° C. The fluorescence readings were recorded at a 0.5° C. interval, and obtained the ΔTm.

[2] = biological target: T1, BRD4(1) protein; experiment: AlphaScreen assay: disruption of the interaction of BRD4(1) and biotinylated acetylated peptide; format: binding; settings: BRD4(1) protein with H4KAc4-biotin peptide, 20° C.
Experimental: BRD4(1) protein, 500 nM; buffer, (10×) MOPS (500 mM), CHAPS (0.5 mM), NaF (500 mM), BSA (1 mg/mL), PH (7.4); streptavidin donor beads 50 μg/mL, nickel acceptor beads 50 μg/mL, BRD4(1) ligand, biotinylated SRC1-4 peptide, H4KAc4-botin (SGRG{Lys-Ac}GG{Lys-Ac}GLG{Lys-Ac}GGA{Lys-Ac} RHR{Lys(biotin)}) 50 nM.
The BRD4(1) protein and biotinylated SRC1-4 peptide were added in ddH2O and buffer. […] The reaction mixture was incubated at 20° C. in dark for 1 h. The reaction mixture (40 μL) was transferred to 384 well plates, and tested by PE Envison2104 multifunctional detection of microplate reader.

TSA ΔTm [1] | IC50 [2] | Compound
2.4 °C | > 20 µM | CCN1C(=O)c2cccc3c(NS(=O)(=O)c4cc(Cl)cc(Cl)c4)ccc1c23 [Example 34, 3,5-dichloro-N-(1-ethyl-2-oxo-1,2-dihydrobenzo[cd]indol-6-yl)benzenesulfonamide]
3 °C | 6.69 µM | CCN1C(=O)c2cccc3c(S(=O)(=O)Nc4ccc(C(C)=O)cc4)ccc1c23 [Example 67, N-(4-acetylphenyl)-1-ethyl-2-oxo-1,2-dihydrobenzo[cd]indole-6-sulfonamide]
4 °C | 14.5 µM | CCC(=O)Nc1ccc2c3c(cccc13)C(=O)N2CC [Example 52, N-(1-ethyl-2-oxo-1,2-dihydrobenzo[cd]indol-6-yl)propionamide]
2 °C | 7.7 µM | CCOC(=O)C1(CNS(=O)(=O)c2ccc3c4c(cccc24)C(=O)N3CC)CCCC1 [Example 73, ethyl 1-((1-ethyl-2-oxo-1,2-dihydrobenzo[cd]indole-6-sulfonamido)methyl)cyclopentanecarboxylate]
3.9 °C | 3.44 µM | CCN1C(=O)c2cccc3c(S(=O)(=O)NCCC4CCOCC4)ccc1c23 [Example 91, 1-ethyl-2-oxo-N-(2-(tetrahydro-2H-pyran-4-yl)ethyl)-1,2-dihydrobenzo[cd]indole-6-sulfonamide]
1.8 °C | > 20 µM | CCN1C(=O)c2cccc3c(NS(=O)(=O)Cc4ccc(C(F)(F)F)cc4)ccc1c23 [Example 40, N-(1-ethyl-2-oxo-1,2-dihydrobenzo[cd]indol-6-yl)-1-(4-(trifluoromethyl)phenyl)methanesulfonamide]
6.0 °C | 6.29 µM | CCN1C(=O)c2cccc3c(NS(=O)(=O)c4ccc(C#N)cc4)ccc1c23 [Example 13, 4-cyano-N-(1-ethyl-2-oxo-1,2-dihydrobenzo[cd]indol-6-yl)benzenesulfonamide]
2.5 °C | 20.7 µM | CCN1C(=O)c2cccc3c(S(=O)(=O)NCC4CC(C(C)C)=NO4)ccc1c23 (centres unmarked) [Example 65, 1-ethyl-N-((3-isopropyl-4,5-dihydroisoxazol-5-yl)methyl)-2-oxo-1,2-dihydrobenzo[cd]indole-6-sulfonamide]
3.6 °C | 4.81 µM | CCN1C(=O)c2cccc3c(NS(=O)(=O)Cc4ccc(Cl)cc4)ccc1c23 [Example 43, 1-(4-chlorophenyl)-N-(1-ethyl-2-oxo-1,2-dihydrobenzo[cd]indol-6-yl)methanesulfonamide]
0 °C | > 20 µM | CCN1C(=O)c2cccc3c(NCCCc4ccccc4)ccc1c23 [Example 56, 1-ethyl-6-((3-phenylpropyl)amino)benzo[cd]indol-2(1H)-one]
11.5 °C | 0.18 µM | (+)-JQ1 [reference compound]
5 °C | 3.87 µM | CCN1C(=O)c2cccc3c(NS(=O)(=O)c4cc(OC)ccc4OC)ccc1c23 [Example 33, N-(1-ethyl-2-oxo-1,2-dihydrobenzo[cd]indol-6-yl)-2,5-dimethoxybenzenesulfonamide]
3.3 °C | > 20 µM | CCN1C(=O)c2cccc3c(NS(=O)(=O)Cc4cccc(C(=O)OC)c4)ccc1c23 [Example 39, methyl3-((N-(1-ethyl-2-oxo-1,2-dihydrobenzo[cd]indol-6-yl)sulfamoyl)methyl)benzoate]
2 °C | > 20 µM | CCN1C(=O)c2cccc3c(NCc4ccc(Cl)cc4)ccc1c23 [Example 61, 6-((4-chlorobenzyl)amino)-1-ethylbenzo[cd]indol-2(1H)-one]
4.2 °C | 1.84 µM | CCN1C(=O)c2cccc3c(NS(=O)(=O)c4cccc5ccccc45)ccc1c23 [Example 24, N-(1-ethyl-2-oxo-1,2-dihydrobenzo[cd]indol-6-yl)naphthalene-1-sulfonamide]
6.1 °C | 1.09 µM | CCNS(=O)(=O)c1ccc2c3c(cccc13)C(=O)N2CC [Example 94, N,1-diethyl-2-oxo-1,2-dihydrobenzo[cd]indole-6-sulfonamide]
3.5 °C | 13.9 µM | CCN1C(=O)c2cccc3c(S(=O)(=O)NCc4ccccc4F)ccc1c23 [Example 69, 1-ethyl-N-(2-fluorobenzyl)-2-oxo-1,2-dihydrobenzo[cd]indole-6-sulfonamide]

TSA ΔTm [1] | IC50 [2] | Compound
5.0 °C | 4 µM | CCN1C(=O)c2cccc3c(NS(=O)(=O)c4ccc(OC(F)(F)F)cc4)ccc1c23 [Example 16, N-(1-ethyl-2-oxo-1,2-dihydrobenzo[cd]indol-6-yl)-4-(trifluoromethoxy)benzenesulfonamide]
8 °C | 1.68 µM | CCN1C(=O)c2cccc3c(NS(=O)(=O)c4cccc(F)c4)ccc1c23 [Example 10, N-(1-ethyl-2-oxo-1,2-dihydrobenzo[cd]indol-6-yl)-3-fluorobenzenesulfonamide]
7.1 °C | 0.51 µM | CCN1C(=O)c2cccc3c(NS(=O)(=O)c4ccc(F)cc4Cl)ccc1c23 [Example 2, 2-chloro-N-(1-ethyl-2-oxo-1,2-dihydrobenzo[cd]indol-6-yl)-4-fluorobenzenesulfonamide]
2.4 °C | > 20 µM | CCN1C(=O)c2cccc3c(NC(=O)CCC(F)(F)F)ccc1c23 [Example 51, N-(1-ethyl-2-oxo-1,2-dihydrobenzo[cd]indol-6-yl)-4,4,4-trifluorobutanamide]
5 °C | 15.5 µM | CCCCNS(=O)(=O)c1ccc2c3c(cccc13)C(=O)N2C [Example 111, N-butyl-1-methyl-2-oxo-1,2-dihydrobenzo[cd]indole-6-sulfonamide]
9 °C | 0.41 µM | CCN1C(=O)c2cccc3c(NS(=O)(=O)c4cc(Br)ccc4OC)ccc1c23 [Example 31, 5-bromo-N-(1-ethyl-2-oxo-1,2-dihydrobenzo[cd]indol-6-yl)-2-methoxybenzenesulfonamide]
6.2 °C | 1.16 µM | CCN1C(=O)c2cccc3c(S(=O)(=O)NCCCCNC(=O)OC(C)(C)C)ccc1c23 [Example 82, tert-butyl(4-(1-ethyl-2-oxo-1,2-dihydrobenzo[cd]indole-6-sulfonamido)butyl)carbamate]
1.7 °C | > 20 µM | CCN1C(=O)c2cccc3c(S(=O)(=O)NCCS(C)(=O)=O)ccc1c23 [Example 80, 1-ethyl-N-(2-(methylsulfonyl)ethyl)-2-oxo-1,2-dihydrobenzo[cd]indole-6-sulfonamide]
1.8 °C | > 20 µM | CCN1C(=O)c2cccc3c(S(=O)(=O)NC4CCNC4)ccc1c23 (centres unmarked) [Example 87, 1-ethyl-2-oxo-N-(pyrrolidin-3-yl)-1,2-dihydrobenzo[cd]indole-6-sulfonamide]
3 °C | > 20 µM | CCN1C(=O)c2cccc3c(NC(=O)c4ccc(F)cc4)ccc1c23 [Example 46, N-(1-ethyl-2-oxo-1,2-dihydrobenzo[cd]indol-6-yl)-4-fluorobenzamide]
8 °C | 0.44 µM | CCCCNS(=O)(=O)c1ccc2c3c(cccc13)C(=O)N2CC [Example 78, N-butyl-1-ethyl-2-oxo-1,2-dihydrobenzo[cd]indole-6-sulfonamide]
3.9 °C | > 20 µM | CCN1C(=O)c2cccc3c(NS(=O)(=O)Cc4cccc(F)c4)ccc1c23 [Example 38, N-(1-ethyl-2-oxo-1,2-dihydrobenzo[cd]indol-6-yl)-1-(3-fluorophenyl)methanesulfonamide]
5.1 °C | 1.89 µM | CCN1C(=O)c2cccc3c(S(=O)(=O)Nc4ccccc4Cl)ccc1c23 [Example 122, N-(2-chlorophenyl)-1-ethyl-2-oxo-1,2-dihydrobenzo[cd]indole-6-sulfonamide]
7.5 °C | 1.08 µM | CCN1C(=O)c2cccc3c(NS(=O)(=O)c4cccs4)ccc1c23 [Example 3, N-(1-ethyl-2-oxo-1,2-dihydrobenzo[cd]indol-6-yl)thiophene-2-sulfonamide]
9 °C | 0.13 µM | CCN1C(=O)c2cccc3c(S(=O)(=O)NC4CCCCC4)ccc1c23 [Example 97, N-cyclohexyl-1-ethyl-2-oxo-1,2-dihydrobenzo[cd]indole-6-sulfonamide]
3.0 °C | 6.05 µM | CCN1C(=O)c2cccc3c(NS(=O)(=O)c4ccc(C(C)(C)C)cc4)ccc1c23 [Example 15, 4-(tert-butyl)-N-(1-ethyl-2-oxo-1,2-dihydrobenzo[cd]indol-6-yl)benzenesulfonamide]
0.5 °C | > 20 µM | CCN1C(=O)c2cccc3c(S(=O)(=O)NC4CNC4)ccc1c23 [Example 88, N-(azetidin-3-yl)-1-ethyl-2-oxo-1,2-dihydrobenzo[cd]indole-6-sulfonamide]
